We go through 40 compounds from patent US5484780A, “Angiotensin II antagonists” (Eli Lilly and Company, priority 1994, dated 1996).

The test deals with T1, angiotensin-induced vasoconstriction (rabbit aorta) (Oryctolagus cuniculus, UniProt P34976).
T1 construct: The thoracic aortas were removed and cleaned of excess fat and connective tissue; from tissue; host or cells: thoracic aorta rings of New Zealand white rabbits (animals from Hazelton)
T1 sequence (P34976 1-359): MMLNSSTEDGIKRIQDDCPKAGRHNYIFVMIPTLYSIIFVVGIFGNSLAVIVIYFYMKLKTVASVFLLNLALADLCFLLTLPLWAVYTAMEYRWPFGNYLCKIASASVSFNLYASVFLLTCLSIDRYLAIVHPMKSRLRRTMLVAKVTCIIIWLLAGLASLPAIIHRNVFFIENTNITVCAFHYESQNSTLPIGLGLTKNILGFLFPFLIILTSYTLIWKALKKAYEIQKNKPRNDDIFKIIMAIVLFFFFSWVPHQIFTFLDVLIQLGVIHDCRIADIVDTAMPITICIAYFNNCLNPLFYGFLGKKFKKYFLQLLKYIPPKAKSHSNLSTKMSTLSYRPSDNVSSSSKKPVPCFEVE
The test can be described thus: Rabbit Aorta Test System: antagonism of angiotensin II contraction of aortic rings. Further details: species or system New Zealand white rabbits. The note with it: contraction to AII 10^-10 to 10^-7 M, 30 minutes incubation with compound; pA2 = -log KB. As for the experimental part:
As previously discussed, the compounds of Formula I are potent effective antagonists of angiotensin II. The ability of representative compounds of Formula I to block angiotensin II receptor binding was determined using the adrenal glomerulosa assay. The ability to antagonize angiotensin-induced vasoconstriction was evaluated in the rabbit aorta test system.
New Zealand white rabbits (Hazelton, 2-3 kg) were sacrificed by cervical dislocation. The thoracic aortas were removed and cleaned of excess fat and connective tissue. Rings of tissue (3 mm wide) were mounted in 10 ml tissue baths between 2 L-shaped stainless steel hooks. The lower hook was attached to a stationary rod. The upper hook was attached to a force displacement transducer (Grass model FT.03). The bath chambers were maintained at 37° C., aerated with 95% 02 /5% C02, and contained physiological solution of the following composition (mM): NaCl, 117; glucose, 5.6; NaH2 PO4, 1.0; MgS04, 0.7; KCl, 5.2; CaCl2, 1.8; NaHCO3, 26; and phentolamine HCl, 0.003.
Rings were equilibrated for 1 hour with 2 g of tension. During the equilibration period, the tissues were washed by overflow every 15 minutes. Rings were then exposed to 10^-8 M angiotensin II (AII) and were allowed to contract until a steady state was reached. Tissues were then washed every 15 minutes for 1 hour. This was repeated every hour until the AII response stabilized. A cumulative concentration response curve to AII (10^-10 to 10^-7 M) was then obtained. At the conclusion of the concentration response curve, tissues were washed every 2 minutes until baseline tension was reached, then every 15 minutes for 30 minutes. Compounds were added in a volume of 10 μl DMSO and allowed to incubate for 30 minutes before repeating the concentration response curve to AII. Contractions to AII were expressed as a percent of the maximum contraction obtained in the control curve (the first AII concentration response curve). EC50 's (concentration that contracted the tissues to 1/2 the control maximum) for each curve were calculated using a 4 parameter logistics model (NonLin, SAS Institute). Potency data for each compound tested are expressed as the pA2 (defined as-log KB, where KB =[molar concentration of antagonist]/[(EC50 AII with antagonist/EC50 AII without antagonist)-1]).
Turning to `CCCCCC[C@H](C(=O)N1C[C@@H](Oc2ccc(OCC)cc2)C[C@H]1C(=O)O)n1cnc(NC(=O)c2ccccc2S(=O)(=O)O)c1` [Example 48], the Kb was 0.631 nM. With `CCCCCC[C@H](C(=O)N1C[C@@H](Oc2ccc(OC(C)C)cc2)C[C@H]1C(=O)O)n1cnc(NC(=O)c2ccccc2S(=O)(=O)O)c1` [Example 49], the Kb is 2.51 nM. For `CCCCCC[C@H](C(=O)N1C[C@@H](Oc2ccc(OCCCC)cc2)C[C@H]1C(=O)O)n1cnc(NC(=O)c2ccccc2S(=O)(=O)O)c1` [Example 50], the Kb was 2 nM.

With `CCCCCC[C@H](C(=O)N1C[C@@H](Oc2ccc(OCC(C)C)cc2)C[C@H]1C(=O)O)n1cnc(NC(=O)c2ccccc2S(=O)(=O)O)c1` [Example 51], the Kb is 12.6 nM. Turning to `CCCCCC[C@H](C(=O)N1C[C@@H](Oc2ccc(OC(C)(C)C)cc2)C[C@H]1C(=O)O)n1cnc(NC(=O)c2ccccc2S(=O)(=O)O)c1` [Example 52], the Kb was 3.98 nM. Same read-out and setting: with `CCCCCC[C@H](C(=O)N1C[C@@H](Oc2ccc(OC(F)(F)F)cc2)C[C@H]1C(=O)O)n1cnc(NC(=O)c2ccccc2S(=O)(=O)O)c1` [Example 53] the figure was 10 nM. On the same count and under the same terms, the value for `CCCCCC[C@H](C(=O)N1C[C@@H](Oc2ccc(OC3CCCC3)cc2)C[C@H]1C(=O)O)n1cnc(NC(=O)c2ccccc2S(=O)(=O)O)c1` [Example 54] was 2.51 nM; that for `CCCCCC[C@H](C(=O)N1C[C@@H](Oc2ccc(OCC3CC3)cc2)C[C@H]1C(=O)O)n1cnc(NC(=O)c2ccccc2S(=O)(=O)O)c1` [Example 55] was 0.398 nM. The same measure, in the same setting: with `CCCCCC[C@H](C(=O)N1C[C@@H](Oc2ccc(OCC3CCCCC3)cc2)C[C@H]1C(=O)O)n1cnc(NC(=O)c2ccccc2S(=O)(=O)O)c1` [Example 56] the figure was 31.6 nM; with `CCCCCC[C@H](C(=O)N1C[C@@H](Oc2ccc(OCC(=O)O)cc2)C[C@H]1C(=O)O)n1cnc(NC(=O)c2ccccc2S(=O)(=O)O)c1` [Example 57], 0.316 nM; with `CCCCCC[C@H](C(=O)N1C[C@@H](Oc2ccc(OC(C)(C)C(=O)O)cc2)C[C@H]1C(=O)O)n1cnc(NC(=O)c2ccccc2S(=O)(=O)O)c1` [Example 58], 0.794 nM. `CCCCCC[C@H](C(=O)N1C[C@@H](Oc2ccc3c(c2)OCO3)C[C@H]1C(=O)O)n1cnc(NC(=O)c2ccccc2S(=O)(=O)O)c1` [Example 59]: the Kb was 0.631 nM. The same measure, in the same setting: with `CCCCCC[C@H](C(=O)N1C[C@@H](Oc2ccc(OC)c(OC)c2)C[C@H]1C(=O)O)n1cnc(NC(=O)c2ccccc2S(=O)(=O)O)c1` [Example 60] the figure was 15.8 nM. The same measure, in the same setting: with `CCCCCC[C@H](C(=O)N1C[C@@H](Oc2ccc3ccccc3c2)C[C@H]1C(=O)O)n1cnc(NC(=O)c2ccccc2S(=O)(=O)O)c1` [Example 61] the figure was 3.16 nM. Same read-out and setting: with `CCCCCC[C@H](C(=O)N1C[C@@H](Oc2ccc3ccc(OC)cc3c2)C[C@H]1C(=O)O)n1cnc(NC(=O)c2ccccc2S(=O)(=O)O)c1` [Example 62] the figure was 1 nM; with `CCCCCC[C@H](C(=O)N1C[C@@H](Oc2ccc3ccc(C(=O)O)cc3c2)C[C@H]1C(=O)O)n1cnc(NC(=O)c2ccccc2S(=O)(=O)O)c1` [Example 63], 1.58 nM; with `CCCCCC[C@H](C(=O)N1C[C@@H](Oc2cccc3ccccc23)C[C@H]1C(=O)O)n1cnc(NC(=O)c2ccccc2S(=O)(=O)O)c1` [Example 64], 2000 nM.

Regarding `CCCCCC[C@H](C(=O)N1C[C@@H](Oc2ccc3oc(C)cc3c2)C[C@H]1C(=O)O)n1cnc(NC(=O)c2ccccc2S(=O)(=O)O)c1` [Example 69], the Kb was 0.501 nM. Still for that read-out and setting: the value for `CCCCCC[C@H](C(=O)N1C[C@@H](Oc2ccc3oc(C(=O)O)cc3c2)C[C@H]1C(=O)O)n1cnc(NC(=O)c2ccccc2S(=O)(=O)O)c1` [Example 70] was 0.501 nM; that for `CCCCCC[C@H](C(=O)N1C[C@@H](Oc2ccc3oc4ccccc4c3c2)C[C@H]1C(=O)O)n1cnc(NC(=O)c2ccccc2S(=O)(=O)O)c1` [Example 71] was 25.1 nM.

In the case of `CCCCCC[C@H](C(=O)N1C[C@@H](Oc2ccc3sccc3c2)C[C@H]1C(=O)O)n1cnc(NC(=O)c2ccccc2S(=O)(=O)O)c1` [Example 72], the Kb is 3.16 nM. `CCCCCC[C@H](C(=O)N1C[C@@H](Oc2cccnc2)C[C@H]1C(=O)O)n1cnc(NC(=O)c2ccccc2S(=O)(=O)O)c1` [Example 73]: the Kb is 158 nM. The same measure, in the same setting: the value for `CCCCCC[C@H](C(=O)N1C[C@@H](Oc2ccon2)C[C@H]1C(=O)O)n1cnc(NC(=O)c2ccccc2S(=O)(=O)O)c1` [Example 74] was 100 nM; that for `CCCCCC[C@H](C(=O)N1C[C@@H](Oc2ccc(OC)cc2)C[C@H]1C(=O)O)n1cnc(NC(=O)c2ccccc2-c2nn[nH]n2)c1` [Example 75] was 1 nM; that for `CCCCCC[C@H](C(=O)N1C[C@@H](Oc2ccc(OC(C)(C)C)cc2)C[C@H]1C(=O)O)n1cnc(NC(=O)c2ccccc2-c2nn[nH]n2)c1` [Example 76] was 31.6 nM. On to `CCCCCC[C@H](C(=O)N1C[C@@H](Oc2ccc(CC(=O)O)cc2)C[C@H]1C(=O)O)n1cnc(NC(=O)c2ccccc2-c2nn[nH]n2)c1` [Example 77], for which the Kb was 1.58 nM. Still for that read-out and setting: the value for `CCCCCC[C@H](C(=O)N1C[C@@H](Oc2ccc(C(=O)O)cc2)C[C@H]1C(=O)O)n1cnc(NC(=O)c2ccccc2-c2nn[nH]n2)c1` [Example 78] was 3.16 nM. On to `CCCCCC[C@H](C(=O)N1C[C@@H](Oc2ccc(OCC(=O)O)cc2)C[C@H]1C(=O)O)n1cnc(NC(=O)c2ccccc2-c2nn[nH]n2)c1` [Example 79], for which the Kb is 0.501 nM. As to `CCCCCC[C@H](C(=O)N1C[C@@H](Oc2ccc(O)cc2)C[C@H]1C(=O)O)n1cnc(NC(=O)c2cccc(O)c2C(=O)O)c1` [Example 81], the Kb is 1.58 nM. On the same count and under the same terms, with `CCCCCC[C@H](C(=O)N1C[C@@H](Oc2ccc(OC)cc2)C[C@H]1C(=O)O)n1cnc(NC(=O)c2cccc(O)c2C(=O)O)c1` [Example 82] the figure was 0.316 nM. Regarding `CCCCCC[C@H](C(=O)N1C[C@@H](Oc2ccc(OCC)cc2)C[C@H]1C(=O)O)n1cnc(NC(=O)c2cccc(O)c2C(=O)O)c1` [Example 83], the “Rabbit Aorta (pA2)” value came to 8.9. Consider `CCCCCC[C@H](C(=O)N1C[C@@H](Oc2ccc(OCCCC)cc2)C[C@H]1C(=O)O)n1cnc(NC(=O)c2cccc(O)c2C(=O)O)c1` [Example 84], for which the Kb was 10 nM. Same read-out and setting: the value for `CCCCCC[C@H](C(=O)N1C[C@@H](Oc2ccc(C(=O)O)cc2)C[C@H]1C(=O)O)n1cnc(NC(=O)c2cccc(O)c2C(=O)O)c1` [Example 85] was 1.26 nM.

Turning to `CCCCCC[C@H](C(=O)N1C[C@@H](Oc2ccc(CC(=O)O)cc2)C[C@H]1C(=O)O)n1cnc(NC(=O)c2cccc(O)c2C(=O)O)c1` [Example 86], the Kb was 0.794 nM.

For `CCCCCC[C@H](C(=O)N1C[C@@H](Oc2ccc(C#N)cc2)C[C@H]1C(=O)O)n1cnc(NC(=O)c2cccc(O)c2C(=O)O)c1` [Example 87], the Kb is 31.6 nM. In the case of `CCCCCC[C@H](C(=O)N1C[C@@H](Oc2ccc3c(c2)CCC3)C[C@H]1C(=O)O)n1cnc(NC(=O)c2cccc(O)c2C(=O)O)c1` [Example 88], the Kb is 6.31 nM.

With `CCCCCC[C@H](C(=O)N1C[C@@H](Oc2ccc3ccccc3c2)C[C@H]1C(=O)O)n1cnc(NC(=O)c2cccc(O)c2C(=O)O)c1` [Example 89], the Kb was 31.6 nM. For `CCCCCC[C@H](C(=O)N1C[C@@H](Oc2ccc(OC)c(OC)c2)C[C@H]1C(=O)O)n1cnc(NC(=O)c2cccc(O)c2C(=O)O)c1` [Example 90], the Kb was 20 nM. In the case of `CCCCCCC(C(=O)N1C[C@@H](Oc2ccc(CP(=O)(O)O)cc2)C[C@H]1C(=O)O)n1cnc(NC(=O)c2ccccc2S(=O)(=O)O)c1` (stereo partly shown) [Example 91], the “Rabbit Aorta (pA2)” value stood at 10.1. For the compound `CCCCCC[C@H](C(=O)N1C[C@@H](Oc2ccc(NS(C)(=O)=O)cc2)C[C@H]1C(=O)O)n1cnc(NC(=O)c2ccccc2S(=O)(=O)O)c1` [Example 92, 1-[1-oxo-2-[4-(2-sulfobenzoyl)amino-1H-imidazol-1-yl]octyl]-4-cis-[(4-N-methanesulfonamido)-phenoxy]-L-proline], the Kb was 0.126 nM.

As a reminder, the Kb is the equilibrium dissociation constant of an antagonist, usually derived from a functional assay.
